PubChem BioAssay AID652053 (Broad Institute, 2013)

tested on: Huh7 psiCHECK-miR122 Renilla luciferase reporter, 48 h; experiment: miR-122 inhibitors in Huh7 reporter cells, dose response, cell-based, Huh7 psiCHECK-miR122, Renilla luciferase, cherry-pick (AID 652053)

Compound	AC40 [µM]
Cc1ccc(S(=O)(=O)NCCN2CCOCC2)c(C)c1C	6.26
Cc1ccc(NS(=O)(=O)c2cc3c(cc2C)NC(=O)CO3)cc1	5.89
COc1ccc(S(=O)(=O)N(C)C[C@H]2Oc3ccc(N(C)C)cc3C(=O)N([C@H](C)CO)C[C@@H]2C)cc1	9.52
CCCC(=O)NC(=S)Nc1ccc(S(=O)(=O)Nc2ccc(OCC)cc2)cc1	1.42
COc1ccc(NS(=O)(=O)c2ccc(OC)c(OC)c2)cc1OC	5.37
Cc1ccc(C2=NN3C(C(=O)c4ccccc4)Oc4ccccc4C3C2)cc1 (centres undefined)	4.05
Cc1cc(C)c(S(=O)(=O)Nc2ccc3c4c(cccc24)CC3)c(C)c1	7.76
O=C(Nc1sc2c(c1C(=O)O)CCC2)c1ccco1	15.1
C[C@@H]1CN([C@@H](C)CO)C(=O)c2cccc(NC(=O)Nc3ccc(F)cc3)c2O[C@H]1CN(C)Cc1ccc(C(F)(F)F)cc1	3.97
Cc1ccc(S(=O)(=O)NC(=NCc2ccccc2)c2ccc(F)cc2)cc1	5.08
CCOc1ccc(S(=O)(=O)/N=C(/Nc2ccc(C)c(S(=O)(=O)N3CCOCC3)c2)c2ccccc2)cc1	2.23
COc1ccc(CNS(=O)(=O)c2cc(-c3cc(C)no3)ccc2C(C)C)cc1	3.69
COc1ccc(N(C(=O)c2ccncc2)S(=O)(=O)c2ccc3c4c(cccc24)C(=O)N3C)cc1	7.01
COc1ccc(OC)c(S(=O)(=O)Nc2ccc3oc4c(c3c2)C(=O)CCC4)c1	17.7
C[C@@H]1CN([C@@H](C)CO)C(=O)c2cc(N(C)C)ccc2O[C@H]1CN(C)Cc1ccc(C(=O)Nc2ccccc2N)cc1	9.78
CCOc1ccc2cc(C3CC(c4ccco4)=NN3S(C)(=O)=O)c(=O)[nH]c2c1 (centres undefined)	7.29
Cc1cc(Br)ccc1NC(=S)NCCc1ccccc1	9.65
Cc1cc(NS(=O)(=O)c2ccccc2)cc(Cl)c1O	21.1
COc1ccc(NS(=O)(=O)c2c(C)cc(C)cc2C)cc1	4.53
C[C@H](CO)N1C[C@H](C)[C@@H](CN(C)Cc2ccc(C(=O)Nc3ccccc3N)cc2)Oc2c(NC(=O)Nc3ccccc3)cccc2C1=O	23.5
Cc1ccc(C)c(S(=O)(=O)Nc2ccc3scnc3c2)c1	0.899
C[C@@H]1CN([C@@H](C)CO)C(=O)c2cccc(NC(=O)C3CCCCC3)c2O[C@@H]1CN(C)Cc1ccc(C(=O)Nc2ccccc2N)cc1	6.92
CCN(CC)c1ccc(NC(=O)COc2ccccc2C#N)cc1S(=O)(=O)Nc1ccccc1OC	0.325
COC(=O)C1CC23C=CCN4CCC5(c6ccccc6NC15C2C)C43 (centres undefined)	20.1
COc1ccc(S(=O)(=O)N(CC(=O)Nc2cc(C)on2)Cc2ccccc2)cc1	21.3

Compound	AC40 [µM]
COc1ccc(S(=O)(=O)N(C)C[C@H]2Oc3ccc(NC(=O)Nc4ccc(C(F)(F)F)cc4)cc3C(=O)N([C@H](C)CO)C[C@H]2C)cc1	1.81
COc1cc(S(=O)(=O)N(CCc2ccccc2)Cc2cccs2)ccc1-n1cnnn1	1.33
COc1ccccc1CN(C)C(=O)c1cccc(S(=O)(=O)N2CCCc3ccccc32)c1	4.57
Cc1noc(C)c1S(=O)(=O)N(C)C[C@@H]1Oc2c(NC(=O)C3CCOCC3)cccc2C(=O)N([C@@H](C)CO)C[C@@H]1C	4.51
COc1ccc(S(=O)(=O)Nc2ccc3c(c2)C(=O)N([C@@H](C)CO)C[C@H](C)[C@H](CN(C)C(=O)Nc2ccccc2)OCCCC[C@@H](C)O3)cc1	29.6
CNC(=O)NC(=O)C(C)OC(=O)c1ccc(Cl)c(S(=O)(=O)Nc2ccc(F)cc2)c1 (centres undefined)	7.64
CCN(CC)C(=S)Nc1ccc(Cl)c(Cl)c1	16
O=S(=O)(NCC1CCCO1)c1cccc(C(F)(F)F)c1 (centres undefined)	22.2
O=S(=O)(NCCc1ccc(F)cc1)c1cc(C(F)(F)F)ccc1Br	< 0.26
CC(C)(C)C(=O)Nc1cc(S(=O)(=O)Nc2ccc(Cl)cc2)ccc1Cl	2.74
Cc1ccc(NS(=O)(=O)c2cc(C(=O)NCCSc3ccc(C)cc3)ccc2C)cc1	4.89
CCOc1ccc(Cl)cc1S(=O)(=O)NC1CCCC1	2.27
C[C@H]1CN([C@@H](C)CO)C(=O)c2cccc(NC(=O)C3CCCCC3)c2O[C@@H]1CN(C)Cc1ccc(C(F)(F)F)cc1	0.547
CCn1c(=O)c2cc(S(=O)(=O)NC3CCCCC3)ccc2n(CC)c1=O	3.31
CCOc1ccc(S(=O)(=O)Nc2cccc(Cl)c2)cc1	3.84
CCCCOC(=O)NC1CCc2cc(OC)c(OC)c(OC)c2-c2ccc(SC)c(=O)cc21 (centres undefined)	0.863
CCOc1ccc(Br)cc1S(=O)(=O)NCc1ccncc1	1.9
Cc1ccc(SCCNC(=O)c2ccc(C)c(S(=O)(=O)Nc3cccc(C)c3)c2)cc1	3.74
CCCCCCNS(=O)(=O)c1ccc(Cl)s1	13.9
COc1cc(C)c(Cl)c(C)c1S(=O)(=O)NCc1cccnc1	2.3
Cc1cc(C)cc(NS(=O)(=O)c2ccc(NC(=S)NC(=O)c3ccc(Br)o3)cc2)c1	0.769
CC(=O)Nc1ccc(S(=O)(=O)Nc2cccc(-c3csc(C)n3)c2)cc1	8.21
O=S(=O)(NC1CCCCC1)c1cccc(-c2nnc(-c3ccccc3)o2)c1	2.16
CCOc1ccc(S(=O)(=O)NCc2ccco2)c2ccccc12	3.06
